Reference: ChEMBL document CHEMBL5053556, “Design, Synthesis, and Biological Evaluation of a Novel Series of Teriflunomide Derivatives as Potent Human Dihydroorotate Dehydrogenase Inhibitors for Malignancy Treatment” (J Med Chem, 2021)

Assays:
[1] = Plasma protein binding in rat at 10 uM incubated for 5 hrs by LC-MS analysis; format: ADME, cell-free; details: read-out: PPB (converted)
[2] = Half life in Sprague-Dawley rat at 5 mg/kg, iv measured after 48 hrs by LC-MS analysis; format: ADME, organism-based; details: in vivo
Mus musculus [3] = assay: Toxicity in NOD-SCID mouse xenografted with human Raji cells assessed as mortality at 40 mg/kg, po administered for 25 days; format: organism-based; details: in vivo, 600 h, time 25 day
[4] = Acute toxicity in BALB/c mouse assessed effect on feeding at 400 mg/kg, po; format: organism-based; details: in vivo
Raji [5] = assay: Antiproliferative activity against human Raji cells assessed as cell growth inhibition at 0.2 uM preincubated with uridine for 24 hrs followed by compound addition and measured after 72 hrs by MTT assay; format: functional; design: scale not given: the % may be the effect or the level left
Raji [6] = assay: Induction of cell cycle arrest in human Raji cells assessed as accumulation of cells at S phase at 0.5 uM after 24 hrs by propidium iodide staining based flow cytometric analysis (reference value: 45.7%); format: functional
Mus musculus [7] = assay: Toxicity in NOD-SCID mouse xenografted with human Raji cells assessed as change in ALT level at 40 mg/kg, po administered for 25 days; format: organism-based; details: in vivo, 600 h, time 25 day
[8] = Acute toxicity in BALB/c mouse assessed effect on body weight at 400 mg/kg, po; format: organism-based; details: in vivo
Mus musculus [9] = assay: Toxicity in NOD-SCID mouse xenografted with human Raji cells assessed as change in AST level at 40 mg/kg, po administered for 25 days; format: organism-based; details: in vivo, 600 h, time 25 day
L02 = assay: cells; format: ADME, cell-based; details: Homo sapiens, L02, 96 h
Description: Cytotoxicity against human L02 cells assessed as cell growth inhibition incubated for 96 hrs by MTT assay

Raji [10] = assay: Antitumor activity against human Raji cells xenografted in NOD-SCID mouse assessed as tumor growth inhibition at 30 mg/kg, po administered for 25 days; format: functional; details: 600 h, time 25 day, read-out: TGI
[11] = Plasma protein binding in rat at 1 uM incubated for 5 hrs by LC-MS analysis; format: ADME, cell-free; details: read-out: PPB (converted)
Mus musculus [12] = assay: Toxicity in NOD-SCID mouse xenografted with human Raji cells assessed as change in uric acid level at 40 mg/kg, po administered for 25 days; format: organism-based; details: in vivo, 600 h, time 25 day
[13] = Microsomal stability in human liver microsomes assessed as half life at 1 uM measured upto 120 mins in presence of NADPH by LC-MS analysis; format: ADME, Microsome
SUD4 = assay: Antiproliferative activity against human SU-DHL-4 cells assessed as cell growth inhibition incubated for 96 hrs by MTT assay; format: functional, cell-based; details: SU-DHL-4, 96 h
[14] = Tmax in Sprague-Dawley rat at 15 mg/kg, po measured after 48 hrs by LC-MS analysis; format: ADME, organism-based; details: in vivo
[15] = Drug distribution in NOD-SCID mouse tumor at 40 mg/kg, po administered for 25 days by LC-MS analysis; format: ADME, organism-based, Neoplasm; details: in vivo, 600 h, time 25 day
[16] = Microsomal stability in rat liver microsomes assessed as half life at 1 uM measured upto 120 mins in presence of NADPH by LC-MS analysis; format: ADME, Microsome
[17] = Acute toxicity in BALB/c mouse assessed as effect on liver at 400 mg/kg, po measured on day 14 by H and E staining based assay; format: organism-based; details: in vivo, 336 h, time 14 day
Raji [18] = assay: Antitumor activity against human Raji cells xenografted in NOD-SCID mouse assessed as tumor growth inhibition at 15 mg/kg, po administered for 25 days; format: functional; details: 600 h, time 25 day, read-out: TGI
MV4-11 = assay: Antiproliferative activity against human MV4-11 cells assessed as cell growth inhibition incubated for 96 hrs by MTT assay; format: functional, cell-based; details: MV4-11, 96 h
[19] = Half life in Sprague-Dawley rat at 15 mg/kg, po measured after 48 hrs by LC-MS analysis; format: ADME, organism-based; details: in vivo
Raji [20] = assay: Antiproliferative activity against human Raji cells assessed as cell growth inhibition at 0.2 uM incubated for 96 hrs by MTT assay; format: functional; design: scale not given: the % may be the effect or the level left
HEL = assay: Antiproliferative activity against human HEL cells assessed as cell growth inhibition incubated for 96 hrs by MTT assay; format: functional, cell-based
[21] = Acute toxicity in BALB/c mouse assessed as effect on kidney at 400 mg/kg, po measured on day 14 by H and E staining based assay; format: organism-based; details: in vivo, 336 h, time 14 day
[22] = molecular target: Dihydroorotate dehydrogenase (quinone), mitochondrial (Homo sapiens, UniProt Q02127); details: dose 100.0 nM, time 30.0 min
Dihydroorotate dehydrogenase (quinone), mitochondrial, sequence (Q02127 whole entry): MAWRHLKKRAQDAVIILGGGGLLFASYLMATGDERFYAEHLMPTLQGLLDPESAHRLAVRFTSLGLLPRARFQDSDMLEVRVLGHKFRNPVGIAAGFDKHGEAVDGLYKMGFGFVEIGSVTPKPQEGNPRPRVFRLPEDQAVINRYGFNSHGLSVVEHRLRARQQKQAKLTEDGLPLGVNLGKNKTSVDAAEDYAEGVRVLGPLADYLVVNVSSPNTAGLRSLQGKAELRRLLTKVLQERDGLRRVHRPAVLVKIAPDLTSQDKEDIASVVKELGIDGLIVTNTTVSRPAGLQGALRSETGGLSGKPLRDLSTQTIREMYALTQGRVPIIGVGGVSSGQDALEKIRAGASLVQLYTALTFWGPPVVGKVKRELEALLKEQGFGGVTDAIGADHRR

HL-60 = assay: Antiproliferative activity against human HL-60 cells assessed as cell growth inhibition incubated for 96 hrs by MTT assay; format: functional, cell-based; details: HL-60, 96 h
[23] = Drug distribution in NOD-SCID mouse liver at 40 mg/kg, po administered for 25 days by LC-MS analysis; format: ADME, organism-based; details: in vivo, 600 h, time 25 day
Raji [24] = assay: Antiproliferative activity against human Raji cells assessed as cell growth inhibition at 0.06 uM preincubated with uridine for 24 hrs followed by compound addition and measured after 72 hrs by MTT assay; format: functional; design: scale not given: the % may be the effect or the level left
[25] = Plasma protein binding in rat at 0.1 uM incubated for 5 hrs by LC-MS analysis; format: ADME, cell-free; details: read-out: PPB (converted)
Raji [26] = assay: Antiproliferative activity against human Raji cells assessed as cell growth inhibition at 0.1 uM preincubated with uridine for 24 hrs followed by compound addition and measured after 72 hrs by MTT assay; format: functional; design: scale not given: the % may be the effect or the level left
Raji [27] = assay: Induction of cell cycle arrest in human Raji cells assessed as accumulation of cells at S phase at 0.25 uM after 24 hrs by propidium iodide staining based flow cytometric analysis (reference value: 45.7%); format: functional
Raji [28] = assay: Antiproliferative activity against human Raji cells assessed as cell growth inhibition at 0.4 uM preincubated with uridine for 24 hrs followed by compound addition and measured after 72 hrs by MTT assay; format: functional; design: scale not given: the % may be the effect or the level left
[29] = AUC(0 to t) in Sprague-Dawley rat at 5 mg/kg, iv measured after 48 hrs by LC-MS analysis; format: ADME, organism-based; design: time 48 hrs, dose 5 mg/kg, route iv; details: in vivo, 48 h
Raji [30] = assay: Antiproliferative activity against human Raji cells assessed as cell growth inhibition at 0.1 uM incubated for 96 hrs by MTT assay; format: functional; design: scale not given: the % may be the effect or the level left
[31] = Acute toxicity in BALB/c mouse assessed as effect on lung at 400 mg/kg, po measured on day 14 by H and E staining based assay; format: organism-based; details: in vivo, 336 h, time 14 day
Daudi = assay: Antiproliferative activity against human Daudi cells assessed as cell growth inhibition incubated for 96 hrs by MTT assay; format: functional, cell-based
Mus musculus [32] = assay: Toxicity in NOD-SCID mouse xenografted with human Raji cells assessed as change in UREAL at 40 mg/kg, po administered for 25 days; format: organism-based; details: in vivo, 600 h, time 25 day
Raji [33] = assay: Antiproliferative activity against human Raji cells assessed as cell growth inhibition incubated for 96 hrs by MTT assay; format: functional, cell-based
Raji [34] = assay: Induction of cell cycle arrest in human Raji cells assessed as accumulation of cells at S phase at 0.125 uM after 24 hrs by propidium iodide staining based flow cytometric analysis (reference value: 45.7%); format: functional
[35] = Cmax in Sprague-Dawley rat at 15 mg/kg, po measured after 48 hrs by LC-MS analysis; format: ADME, organism-based; design: dose 15 mg/kg, time 48 hrs, route po; details: in vivo
[36] = Drug distribution in NOD-SCID mouse kidney at 40 mg/kg, po administered for 25 days by LC-MS analysis; format: ADME, organism-based; details: in vivo, 600 h, time 25 day
[37] = Microsomal stability in mouse liver microsomes assessed as half life at 1 uM measured upto 120 mins in presence of NADPH by LC-MS analysis; format: ADME, Microsome

For `C/C(O)=C(\C#N)C(=O)Nc1cc(O[C@@H](C)C(F)(F)F)c(C(=O)Nc2c(F)cccc2F)cc1F`, the fraction unbound at 5 h, 10 µM [1] was 0.007, the half-life [2] was 426 min and the Activity (Mus musculus [3]) was “Non-Toxic”. For the same compound, the Activity [4] was “Non-Toxic”, the Activity (Raji [5]) was 17.1% and the Activity (Raji [6]) was 86.9%. The Activity (Mus musculus [7]) was “Non-Toxic”, the Activity [8] was “Non-Toxic” and the Activity (Mus musculus [9]) was “Non-Toxic”. The IC50 (L02) was 518 nM, the inhibition in vivo at 30 mg/kg (Raji [10]) was 81.4% and the fraction unbound at 5 h, 1 µM [11] was 0.014. For the same compound, the Activity (Mus musculus [12]) was “Non-Toxic”, the half-life at 1 µM [13] was 1390 min and the IC50 (SUD4) was 20 nM. For the same compound, the Tmax [14] was 18 h, the Drug uptake [15] was “Active” and the half-life at 1 µM [16] was 85.6 min. For the same compound, the Activity [17] was “Non-Toxic”, the inhibition in vivo at 15 mg/kg (Raji [18]) was 72.2% and the IC50 (MV4-11) was 20 nM. For the same compound, the half-life [19] was 606 min, the Activity (Raji [20]) was 58.7% and the IC50 (HEL) was 20 nM. For the same compound, the Activity [21] was “Non-Toxic”, the inhibition [22] was 88.9% and the IC50 (HL-60) was 20 nM. For the same compound, the Drug uptake [23] was “Active”, the Activity (Raji [24]) was 3.3% and the fraction unbound at 5 h, 0.1 µM [25] was 0.099. The Activity (Raji [26]) was 6.2%, the Activity (Raji [27]) was 70.3% and the Activity (Raji [28]) was 21.3%. The AUCt [29] was 31.644 µg·h/mL, the Activity (Raji [30]) was 43.1% and the Activity [31] was “Non-Toxic”. For the same compound, the IC50 (Daudi) was 20 nM, the Activity (Mus musculus [32]) was “Non-Toxic” and the IC50 (Raji [33]) was 7.7 nM. For the same compound, the Activity (Raji [34]) was 64.4%, the Cmax [35] was 1270 ng/mL and the Drug uptake [36] was “Active”. It also gave a half-life at 1 µM [37] of 495 min.
